Measurements taken from patent US5158947A, “Condensed heterocyclic compounds and psychopharmaceutical composition containing same” (Suntory Limited, priority 1990, dated 1992).
pIC50: −log10 of the molar value.

Columns and labels:
σ-receptor = target: T1, σ-receptor (Rattus norvegicus, UniProt Q9R0C9); experiment: Affinity to σ-receptor ([3H]3PPP binding, rat cerebra without cerebellum); set-up: species or system Wistar male rats; details: 3 nM [3H]3PPP, 25° C., 90 minutes; non-specific: 1 μM haloperidol; read-out: Affinity to δ-Receptor IC50
T1 construct: all of the cerebra, other than the cerebellum, of Wistar male rats; from tissue; host or cells: rat brain (cerebra without cerebellum), crude washed membranes
Procedure: The affinities of the present compounds to the […] were determined according to a method described in the "Molecular Pharmacology," Vol. 32, 772-784 (1987).
That is, 50 mM of a Tris-HCl (pH=7.7) buffer solution was added to all of the cerebra, other than the cerebellum, of Wistar male rats, followed by homogenizing for […] in a Polytson® and then centrifugally separating same at 35000 G for 10 minutes. To the resultant precipitate was added the same buffer solution as used above, and the homogenizing and the centrafugalization were repeated. This procedure was repeated once more, and to the final precipitate was added a 50 mM Tris -HCl (pH=8.0) buffer solution and the receptor having a binding capability. In the binding experiments, 3nM [^3 H] propyl-3-(3-hydroxyphenyl) piperidine (i.e., [^3 H]3PPP) was used, and as a non-specific ligand, 1 μM haloperidol was used. After incubation at 25° C. for 90 minutes, the bound ligand was recovered by filtration and the determination was carried out. The filter used was a Whatmen GF/B filter treated with 0.5% polyethylene imine.

[1] = system: locomotor hyperactivity induced by amfoneric acid; experiment: Inhibitory activity against locomotor hyperactivity induced by amfoneric acid; assay type: in vivo, ddy male mouse; details: Mus musculus, ip, 100 min, amfoneric acid 2.5 mg/kg s.c., total count over 100 minutes, read-out: Inhibition Rate; for inhibition in vivo at 30 mg/kg: 30 mg/kg intraperitoneal; for inhibition in vivo at 10 mg/kg: 10 mg/kg intraperitoneal, * 0.05 > P > 0.01, ** 0.01 > P > 0.001
Procedure: The inhibitory activity against locomotor hyperactivity induced by amfoneric acid of the present compounds were determined according to a method described in the "Journal of Pharmacology & Experimental Therapeuties," Vol. 239, 124-131 (1986) by R. T. Matthews et al.
That is, to a ddy male mouse having a body weight of about 25g, were simultaneously administered amfoneric acid (2.5 mg/kg, subcutaneous administration) and the present compound (intraperitoneal administration),and the amount of movement was determined using an apparatus for determining the amount of movement of a mouse. The amount of movement was determined over 100 minutes, and the test of significance thereof was effected for the total count number for 100 minutes by a Manwhitnee test. The value was indicated as the inhibition rate based, as a control, upon the group to which 2.5 mg/kg of amfoneric acid was subcutaneously administered.

catalepsy = experiment: Catalepsy; assay type: in vivo, ddy male mice; details: scored after 30, 60, 90, and 120 minutes
Procedure: To ddy male mice having a body weight of about 25 g was intraperitoneally administered the present compound and the catalepsy was determined after 30, 60, 90, and 120 minutes therefrom. The score of the catalepsy was as follows.
The forelegs of the mouse were placed on an aupper edge of a 5.5 cm height box and the time until the more fulled its forelegs down from the box or the mouse jumped up onto the top of the box was measured and the score was determined based upon the following standard.

T1 sequence (Q9R0C9 whole entry): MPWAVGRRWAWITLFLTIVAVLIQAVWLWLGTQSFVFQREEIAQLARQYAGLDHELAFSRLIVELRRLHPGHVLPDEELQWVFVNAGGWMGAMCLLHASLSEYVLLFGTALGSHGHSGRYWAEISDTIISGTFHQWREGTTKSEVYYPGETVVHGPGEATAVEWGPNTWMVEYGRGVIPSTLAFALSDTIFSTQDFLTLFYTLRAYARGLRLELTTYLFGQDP

pIC50 (σ-receptor) | SMILES | further results
7.75 | O=C1COc2ccccc2C(=O)N1CCCCN1CCC(c2ccccn2)CC1 [Example 14, 4-(4-(4-(2-pyridyl)-1-piperidinyl)butyl)-2,3,4,5-tetrahydro-1,4-benzoxazepine-3,5-dione] | –
– | OC(CCCN1CCN(c2ncc(F)cn2)CC1)c1ccc(F)cc1 (centres unmarked) [BMY14802, reference compound] | inhibition in vivo at 30 mg/kg ([1]; * 0.05 > P > 0.01): 51%
7.99 | O=C1COc2ccccc2CN1CCCCCN1CCC(c2ccc(Cl)cc2)CC1 [Example 29] | inhibition in vivo at 10 mg/kg [1]: 60%; Catalepsy (catalepsy; 30 mg/kg intraperitoneal): - (less than 1)
8.18 | O=C1COc2ccccc2C(=O)N1CCCCN1CCC(c2ccccc2)CC1 [Example 8, 4-(4-(4-phenyl)-1-piperidinyl)butyl-2,3,4,5-tetrahydro-1,4-benzoxazepine-3,5-dione] | inhibition in vivo at 30 mg/kg ([1]; * 0.05 > P > 0.01): 73%; Catalepsy (catalepsy; 30 mg/kg intraperitoneal): - (less than 1)
8.10 | O=C1COc2ccccc2CN1CCCCCN1CCC(c2ccccc2)CC1 [Example 28, 4-(5-(4-phenyl)-1-piperidinyl)pentyl-2,3,4,5-tetrahydro-1,4-benzoxazepin-3-one] | –
8.05 | O=C1CCc2ccccc2C(=O)N1CCCCCN1CCC(c2ccc(Cl)cc2)CC1 [Example 37, 2-(5-(4-(4-chlorophenyl)-1-piperidinyl)pentyl)-1,3,4,5-tetrahydro-2-benzazepine-1,3-dione] | inhibition in vivo at 10 mg/kg [1]: 74%; Catalepsy (catalepsy; 30 mg/kg intraperitoneal): - (less than 1)
7.97 | O=C1c2ccccc2OCCN1CCCCCN1CCC(c2ccc(Cl)cc2)CC1 [Example 27, 4-(5-(4-(4-chlorochenyl)1-piperidinyl)pentyl)-2,3,4,5-tetrahydro-1,4-benzoxazepin-5-one] | –
7.86 | CN1CC(=O)N(CCCCN2CCC(c3ccccc3)CC2)C(=O)c2ccccc21 [Example 21, 1-methyl-4-(4-(4-phenyl) -1-piperidinyl)butyl-2,3,4,5-tetrahydro-1,4-benzodiazepine-3,5-dione] | Catalepsy (catalepsy; 30 mg/kg intraperitoneal): - (less than 1)
7.93 | O=C1c2ccccc2OCCN1CCCCN1CCC(c2ccc(Cl)cc2)CC1 [Example 2, 4-(4-(4-(4-chlorophenyl)-1-piperidinyl)butyl)-2,3,4,5-tetrahydro-1,4-benzoxazepin-5-one] | –
8.40 | O=C1CSc2ccccc2C(=O)N1CCCCCN1CCC(c2ccccc2)CC1 [Example 32, 4-(5-(4-phenyl)-1-piperidinyl)pentyl-2,3,4,5-tetrahydro-1,4-benzothiazepine-3,5-dione] | –
8.43 | O=C1CCc2ccccc2C(=O)N1CCCCN1CCC(c2ccccc2)CC1 [Example 22, 2-(4-(4-phenyl)-1-piperidinyl)butyl-1,3,4,5-tetrahydro-2-benzazepine-1,3-dione] | inhibition in vivo at 10 mg/kg [1]: 52%
8.33 | O=C1COc2ccccc2C(=O)N1CCCCCN1CCC(c2ccccc2)CC1 [Example 30, 4-(5-(4-phenyl)-1-piperidinyl)pentyl-2,3,4,5-tetrahydro-1,4-benzoxazepine-3,5-dione] | inhibition in vivo at 30 mg/kg ([1]; * 0.05 > P > 0.01): 70%; Catalepsy (catalepsy; 30 mg/kg intraperitoneal): - (less than 1)
8.04 | O=C1COc2ccccc2CN1CCCCN1CCC(c2ccccc2)CC1 [Example 4] | –
7.85 | O=C1CNc2ccccc2C(=O)N1CCCCN1CCC(c2ccccc2)CC1 [Example 18, 4-(4-(4-phenyl)-1-piperidinyl)butyl-2,3,4,5-tetrahydro-1,4-benzodiazepine-3,5-dione] | inhibition in vivo at 1 mg/kg ([1]; 1 mg/kg intraperitoneal, * 0.05 > P > 0.01): 65%; inhibition in vivo at 10 mg/kg [1]: 90%; Catalepsy (catalepsy; 10 mg/kg intraperitoneal): - (less than 1)
7.96 | O=C1c2ccccc2OCCN1CCCCCN1CCC(c2ccccc2)CC1 [Example 26, 4-(5-(4-phenyl)-1-piperidinyl)pentyl-2,3,4,5-tetrahydro-1,4-benzoxazepin-5-one] | inhibition in vivo at 10 mg/kg [1]: 65%; Catalepsy (catalepsy; 30 mg/kg intraperitoneal): - (less than 1)
7.79 | O=C1CNc2ccccc2C(=O)N1CCCCN1CCC(c2ccc(Cl)cc2)CC1 [Example 19] | inhibition in vivo at 10 mg/kg [1]: 53%; Catalepsy (catalepsy; 20 mg/kg intraperitoneal): - (less than 1)
7.75 | O=C1CSc2ccccc2C(=O)N1CCCCCN1CCC(c2ccc(Cl)cc2)CC1 [Example 33] | –
7.85 | O=C1c2ccccc2OCCN1CCCCN1CCC(c2ccccc2)CC1 [Example 1, 4-(4-(4-phenyl)-1-piperidinyl)butyl-2,3,4,5-tetrahydro-1,4-benzoxazepin-5-one] | –
8.44 | O=C1CCc2ccccc2C(=O)N1CCCCCN1CCC(c2ccccc2)CC1 [Example 36, 2-(5-(4-phenyl)-1-piperidinyl)pentyl-1,3,4,5-tetrahydro-2-benzazepine-1,3-dione] | –
8.11 | O=C1COc2ccccc2C(=O)N1CCCCCN1CCC(c2ccc(Cl)cc2)CC1 [Example 31] | Catalepsy (catalepsy; 30 mg/kg intraperitoneal): - (less than 1)
8.33 | O=C1COc2ccccc2C(=O)N1CCCCN1CCC(c2ccc(Cl)cc2)CC1 [Example 9, 4-(4-(4-(4-chlorophenyl)-1-piperidinyl)butyl)-2,3,4,5-tetrahydro-1,4-benzoxazepine-3,5-dione] | –
7.73 | O=C1COc2ccccc2CN1CCCCN1CCC(c2ccc(Cl)cc2)CC1 [Example 5] | –
8.40 | O=C1CSc2ccccc2C(=O)N1CCCCN1CCC(c2ccccc2)CC1 [Example 17, 4-(4-(4-phenyl)-1-piperidinyl)butyl-2,3,4,5-tetrahydro-1,4-benzothiazepine-3,5-dione] | –
– | O=C(CCCN1CCC(O)(c2ccc(Cl)cc2)CC1)c1ccc(F)cc1 [Haloperidol, reference compound] | Catalepsy (catalepsy; 0.1 mg/kg intraperitoneal, control): ++ (more than 2 but less than 3)
8.19 | O=C1CCc2ccccc2C(=O)N1CCCCN1CCC(c2ccc(Cl)cc2)CC1 [Example 23, 2-(4-(4-(4-chlorophenyl)-1-piperidinyl)butyl)-1,3,4,5-tetrahydro-2-benzazepine-1,3-dione] | –

SMILES | pIC50 (σ-receptor) | further results
O=C1COc2ccccc2C(=O)N1CCCCN1CC=C(c2ccccc2)CC1 [Example 12, 4-(4-(4-phenyl-1,2,3,6-tetrahydro)-1-pyridyl)butyl-2,3,4,5-tetrahydro-1,4-benzoxazepine-3,5-dione] | 7.92 | –
